Values after ≈ are worked out from the molar mass of the structure shown.
Experiments:
Experiment in all cases: in vitro agar dilution test (NCCLS), MIC
Type in all cases: cell-based
E. coli Neumann = settings: Escherichia coli, inoculation density 10^4 per inoculation point
Procedure: (§1) In the in vitro agar dilution test according to the internationally customary test (American National Committee for Clinical Laboratory Standards=NCCLS), activity is found against the germs listed below.
(§2) The minimum inhibitory concentration (MIC) was determined by the agar dilution procedure, using an inoculator and an inoculation density of 10^4 per inoculation point. The MIC is the concentration at which no bacteria colonies grow.

Klebs. 57 USA = settings: inoculation density 10^4 per inoculation point
Procedure: as §1, §2

Staph. epid. 25185 = settings: inoculation density 10^4 per inoculation point
Procedure: as §1, §2

Serratia 16001 = settings: inoculation density 10^4 per inoculation point
Procedure: as §1, §2

MIC (E. coli Neumann) [µg/mL]	MIC (Klebs. 57 USA) [µg/mL]	MIC (Staph. epid. 25185) [µg/mL]	MIC (Serratia 16001) [µg/mL]	SMILES
32 (≈ 67.2 µM)	4 (≈ 8.4 µM)	64 (≈ 134 µM)	–	Cn1c(=NC(N)=O)ccn(C2SC(C(O)C(NC(=O)C(N)CO)C(=O)O)C(O)C2O)c1=O (stereo not shown) [1 X = NCONH2]
–	–	–	128 (≈ 295 µM)	Cn1c(=O)ccn(C2SC(C(O)C(NC(=O)C(N)CO)C(=O)O)C(O)C2O)c1=O (stereo not shown) [1 X = O]
